According to ChEMBL document CHEMBL1152061, “New cytostatic agents obtained by molecular topology” (Bioorg Med Chem Lett, 1996):

Columns and labels:
[1] = tested on: HeLa; assay: Compound was evaluated for the inhibition of cell proliferation of human cervix epithelioid carcinoma, HeLa (ATCC CCL2).; assay type: functional, cell-based
[2] = tested on: HepG2; assay: Compound was evaluated for the inhibition of cell proliferation of human hepatocellular carcinoma, HepG2 (ATCC HB8065).; assay type: functional, cell-based
[3] = Compound was evaluated for the inhibition of cell proliferation of human ocular lens epithelium (CECH).; assay type: functional, tissue-based; settings: Lens of camera-type eye
[4] = Cytotoxicity ratio for Human hepatocellular carcinoma, HepG2 (ATCC HB 8065) cells; assay type: functional
[5] = tested on: HeLa; assay: Compound was evaluated for the cytotoxicity against human cervix epithelioid carcinoma, HeLa (ATCC CCL2); assay type: functional
[6] = Compound was evaluated for the cytotoxicity against human ocular lens epithelium (CECH).; assay type: functional, Lens of camera-type eye
[7] = tested on: HepG2; assay: Compound was evaluated for the cytotoxicity against human hepatocellular carcinoma, HepG2 (ATCC HB8065); assay type: functional
[8] = tested on: HeLa; assay: Compound was evaluated for the cytotoxicity against human cervix epithelioid carcinoma, HeLa (ATCC CCL2).; assay type: functional

CN(C)[C@@H]1C(O)=C(C(N)=O)C(=O)[C@@]2(O)C(O)=C3C(=O)c4c(O)cccc4[C@@](C)(O)[C@H]3C[C@@H]12 [TETRACYCLINE]
IC50 [1]: 51 µM
IC50 [2]: 128 µM
IC50 [3]: 207 µM
Ratio [4]: 1.62

CCC[C@@H]1C[C@@H](C(=O)N[C@@H]([C@H]2O[C@H](SC)[C@H](O)[C@@H](O)[C@H]2O)[C@H](C)Cl)N(C)C1 [CLINDAMYCIN]
MNTC [5]: 1000 µM
MNTC [6]: 1000 µM
MNTC [7]: >5000 µM

CO[C@@]12[C@H](COC(N)=O)C3=C(C(=O)C(C)=C(N)C3=O)N1C[C@@H]1N[C@@H]12 [MITOMYCIN]
IC50 [2]: 0.27 µM
IC50 [3]: 0.09 µM
Ratio [4]: 0.33
MNTC [7]: 0.7 µM
MNTC [8]: 2 µM

CCn1cc(C(=O)O)c(=O)c2cnc(N3CCCC3)nc21 [PIROMIDIC ACID]
MNTC [6]: 250 µM
IC50 [1]: 97 µM
IC50 [2]: 110 µM
IC50 [3]: 184 µM
Ratio [4]: 1.67
MNTC [7]: 120 µM
MNTC [8]: 100 µM

O=c1[nH]cc(F)c(=O)[nH]1 [FLUOROURACIL]
IC50 [2]: 85 µM
IC50 [3]: 8 µM
Ratio [4]: 0.09
MNTC [7]: 100 µM
MNTC [8]: 40 µM

Cc1c(C(=O)O)c(O)cc2c1C(=O)c1c(O)c([C@@H]3O[C@H](CO)[C@@H](O)[C@H](O)[C@H]3O)c(O)c(O)c1C2=O [CARMINIC ACID]
MNTC [6]: 2200 µM
IC50 [1]: 3730 µM
IC50 [2]: 1770 µM
IC50 [3]: 1650 µM
Ratio [4]: 0.93
MNTC [7]: 2500 µM
MNTC [8]: >5000 µM

CNC(C)C1CCC(N)C(OC2C(N)CC(N)C(OC3OCC(C)(O)C(NC)C3O)C2O)O1.CNC1C(O)C(OC2C(N)CC(N)C(OC3OC(C(C)N)CCC3N)C2O)OCC1(C)O.CNC1C(O)C(OC2C(N)CC(N)C(OC3OC(CN)CCC3N)C2O)OCC1(C)O.O=S(=O)(O)O (stereo unspecified) [GENTAMICIN MIXTURE]
MNTC [6]: 210 µM
MNTC [7]: 210 µM
MNTC [8]: >1050 µM

C[C@H]1c2cccc(O)c2C(=O)C2=C(O)[C@]3(O)C(=O)C(C(N)=O)=C(O)[C@@H](N(C)C)[C@@H]3[C@@H](O)[C@@H]21.O [DOXYCYCLINE]
MNTC [6]: 60 µM
IC50 [1]: 30 µM
IC50 [2]: 53 µM
IC50 [3]: 35 µM
Ratio [4]: 0.66
MNTC [7]: 60 µM
MNTC [8]: 40 µM
